≈ marks a conversion by molar mass, not a printed value. Calls of active or inactive are those of the source. No cut-off for these calls is given here.
What was measured:
Staphylococcus aureus [1] = experiment: Antimicrobial activity against methicillin-resistant Staphylococcus aureus N315 assessed as bacterial growth inhibition incubated for 24 hrs by Muller Hinton broth based dilution assay; format: functional
Staphylococcus aureus [2] = experiment: Antimicrobial activity against methicillin-resistant Staphylococcus aureus NCTC10442 assessed as bacterial growth inhibition incubated for 24 hrs by Muller Hinton broth based dilution assay; format: functional
Acinetobacter baumannii [3] = experiment: Antimicrobial activity against Acinetobacter baumannii ATCC17978 assessed as bacterial growth inhibition incubated for 24 hrs by Muller Hinton broth based dilution assay; format: functional
Klebsiella pneumoniae [4] = experiment: Antimicrobial activity against Klebsiella pneumoniae ATCC10031 assessed as bacterial growth inhibition incubated for 24 hrs by Muller Hinton broth based dilution assay; format: functional
Klebsiella pneumoniae [5] = experiment: Antimicrobial activity against Klebsiella pneumoniae ATCC14581 assessed as bacterial growth inhibition incubated for 24 hrs by Muller Hinton broth based dilution assay; format: functional
Staphylococcus aureus [6] = experiment: Antimicrobial activity against Staphylococcus aureus ATCC29213 assessed as bacterial growth inhibition incubated for 24 hrs in presence of 3220 ug/mL Na+ by Muller Hinton broth based dilution assay; format: functional
Staphylococcus aureus [7] = experiment: Antimicrobial activity against methicillin-resistant Staphylococcus aureus NCTC10442 assessed as bacterial growth inhibition incubated for 24 hrs in presence of 3220 ug/mL Na+ by Muller Hinton broth based dilution assay; format: functional
Candida albicans [8] = experiment: Antimicrobial activity against Candida albicans ATCC10231 assessed as fungal growth inhibition incubated for 48 hrs in presence of 3220 ug/mL Na+ by Sabouraud Dextrose broth based dilution assay; format: functional
Staphylococcus aureus [9] = experiment: Antimicrobial activity against Staphylococcus aureus ATCC29213 assessed as bacterial growth inhibition incubated for 24 hrs in presence of 175.5 ug/mL K+ by Muller Hinton broth based dilution assay; format: functional
Staphylococcus aureus [10] = experiment: Antimicrobial activity against methicillin-resistant Staphylococcus aureus NCTC10442 assessed as bacterial growth inhibition incubated for 24 hrs in presence of 175.5 ug/mL K+ by Muller Hinton broth based dilution assay; format: functional
Acinetobacter baumannii [11] = experiment: Antimicrobial activity against Acinetobacter baumannii ATCC17978 assessed as bacterial growth inhibition incubated for 24 hrs in presence of 175.5 ug/mL K+ by Muller Hinton broth based dilution assay; format: functional
Staphylococcus aureus [12] = experiment: Antimicrobial activity against methicillin-resistant Staphylococcus aureus NCTC10442 assessed as bacterial growth inhibition incubated for 24 hrs in presence of 100 ug/mL Ca2+ by Muller Hinton broth based dilution assay; format: functional
Escherichia coli [13] = experiment: Antimicrobial activity against Escherichia coli ATCC25922 assessed as bacterial growth inhibition incubated for 24 hrs in presence of 100 ug/mL Ca2+ by Muller Hinton broth based dilution assay; format: functional
Acinetobacter baumannii [14] = experiment: Antimicrobial activity against Acinetobacter baumannii ATCC17978 assessed as bacterial growth inhibition incubated for 24 hrs in presence of 100 ug/mL Ca2+ by Muller Hinton broth based dilution assay; format: functional
Candida albicans [15] = experiment: Antimicrobial activity against Candida albicans ATCC10231 assessed as fungal growth inhibition incubated for 48 hrs in presence of 24.3 ug/mL Mg2+ by Sabouraud Dextrose broth based dilution assay; format: functional
Staphylococcus aureus [16] = experiment: Antimicrobial activity against Staphylococcus aureus ATCC29213 assessed as log reduction in microbial load at 8 times of MIC measured at 0.5 hr by time-kill kinetics assay; format: functional
Escherichia coli [17] = experiment: Antimicrobial activity against Escherichia coli ATCC25922 assessed as log reduction in microbial load at 8 times of MIC measured at 0.5 hr by time-kill kinetics assay; format: functional
Candida albicans [18] = experiment: Antimicrobial activity against Candida albicans ATCC10231 assessed as fungal killing at 1 to 8 times of MIC measured upto 24 hrs by time-kill kinetics assay; format: functional, organism-based
Candida albicans [19] = experiment: Induction of drug resistance in Candida albicans ATCC10231 assessed as change in MIC at sub-inhibitory concentration incubated for 21 to 22 passages; format: functional
Cell membrane = experiment: Disruption of membrane integrity in Staphylococcus aureus ATCC29213 assessed as red fluorescence at 8 times of MIC incubated for 2 hrs under dark condition by SYTO 9 and PI staining based laser confocal microscopy analysis
Staphylococcus aureus [20] = experiment: Antibiofilm activity against Staphylococcus aureus ATCC29213 assessed as inhibition of biofilm formation at 0.78 ug/mL incubated for 24 hrs by crystal violet staining based analysis relative to control; format: functional
Staphylococcus aureus [21] = experiment: Antibiofilm activity against Staphylococcus aureus ATCC29213 assessed as inhibition of biofilm formation at 3.125 ug/mL incubated for 24 hrs by crystal violet staining based analysis relative to control; format: functional
Escherichia coli [22] = experiment: Antibiofilm activity against Escherichia coli ATCC25922 assessed as inhibition of biofilm formation at 0.78 ug/mL incubated for 24 hrs by crystal violet staining based analysis relative to control; format: functional
Escherichia coli [23] = experiment: Antibiofilm activity against Escherichia coli ATCC25922 assessed as inhibition of biofilm formation at 3.125 ug/mL incubated for 24 hrs by crystal violet staining based analysis relative to control; format: functional
Escherichia coli [24] = experiment: Antibiofilm activity against Escherichia coli ATCC25922 assessed as inhibition of biofilm formation at 6.25 ug/mL incubated for 24 hrs by crystal violet staining based analysis relative to control; format: functional
Staphylococcus aureus [25] = experiment: Disruption of preformed biofilm in Staphylococcus aureus ATCC29213 assessed as residual preformed biofilm at 0.39 ug/mL incubated for 24 hrs by crystal violet staining based analysis relative to control; format: functional; conditions: dose 0.39 µg/ml
Escherichia coli [26] = experiment: Disruption of preformed biofilm in Escherichia coli ATCC25922 assessed as residual preformed biofilm at 0.78 ug/mL incubated for 24 hrs by crystal violet staining based analysis relative to control; format: functional; conditions: dose 0.78 µg/ml
Escherichia coli [27] = experiment: Disruption of preformed biofilm in Escherichia coli ATCC25922 assessed as residual preformed biofilm at […] ug/mL incubated for 24 hrs by crystal violet staining based analysis relative to control; format: functional; conditions: dose […] microg/ml, 1.56 ug/mL
[28] = Cytotoxicity against mouse corneal epithelial cells assessed as viable cells at 3.125 ug/mL incubated for 24 hrs by CCK-8 assay relative to control; format: toxicity, cell-based, Corneal epithelial cell; conditions: at 3.125 µg/mL, read-out: Activity
[29] = Cytotoxicity against mouse corneal epithelial cells assessed as viable cells at 6.25 ug/mL incubated for 24 hrs by CCK-8 assay relative to control; format: toxicity, cell-based, Corneal epithelial cell; conditions: at 6.25 µg/mL, read-out: Activity
[30] = Cytotoxicity against mouse corneal epithelial cells assessed as viable cells at 12.5 ug/mL incubated for 24 hrs by CCK-8 assay relative to control; format: toxicity, cell-based, Corneal epithelial cell; conditions: at 12.5 µg/mL, read-out: Activity
[31] = Cytotoxicity against mouse corneal epithelial cells assessed as viable cells at 50 ug/mL incubated for 24 hrs by CCK-8 assay relative to control; format: toxicity, cell-based, Corneal epithelial cell; conditions: at 50 µg/mL, read-out: Activity
Staphylococcus aureus [32] = experiment: In vivo antibacterial activity against Staphylococcus aureus ATCC29213 infected in cyclophosphamide immunosuppressed keratitis C57BL/6 mouse model assessed as log reduction in bacterial load at 0.5 % administered topically 4 times per day for 3 days; format: functional; conditions: time 3 day
Pseudomonas aeruginosa = experiment: In vivo antibacterial activity against Pseudomonas aeruginosa ATCC9027 infected in keratitis C57BL/6 mouse model assessed as log reduction in bacterial load at 0.5 % administered topically 4 times per day for 3 days; format: functional; conditions: time 3 day

SMILES: CCCCCCCCCN1CCCc2cc(OCCCCNC(=N)N)ccc21
- MIC (Staphylococcus aureus [1]): 0.78 µg/mL (≈ 2.01 µM)
- MIC (Staphylococcus aureus [2]): 1.56 µg/mL (≈ 4.01 µM)
- MIC (Acinetobacter baumannii [3]): 1.56 µg/mL (≈ 4.01 µM)
- MIC (Klebsiella pneumoniae [4]): 1.56 µg/mL (≈ 4.01 µM)
- MIC (Klebsiella pneumoniae [5]): 1.56 µg/mL (≈ 4.01 µM)
- MIC (Staphylococcus aureus [6]): 0.78 µg/mL
- MIC (Staphylococcus aureus [7]): 0.78 µg/mL
- MIC (Candida albicans [8]): 1.56 µg/mL
- MIC (Staphylococcus aureus [9]): 0.78 µg/mL
- MIC (Staphylococcus aureus [10]): 0.78 µg/mL
- MIC (Acinetobacter baumannii [11]): 3.12 µg/mL
- MIC (Staphylococcus aureus [12]): 0.78 µg/mL
- MIC (Escherichia coli [13]): 3.12 µg/mL
- MIC (Acinetobacter baumannii [14]): 3.12 µg/mL
- MIC (Candida albicans [15]): 1.56 µg/mL
- log(activity) (Staphylococcus aureus [16]): >3
- log(activity) (Escherichia coli [17]): >3
- Activity (Candida albicans [18]): Dose-Dependent Effect
- Activity (Candida albicans [19]): inactive
- Activity (Cell membrane): Active
- inhibition at 0.78 µg/mL (Staphylococcus aureus [20]): 91%
- inhibition at 3.125 µg/mL (Staphylococcus aureus [21]): 102%
- inhibition at 0.78 µg/mL (Escherichia coli [22]): 49.9%
- inhibition at 3.125 µg/mL (Escherichia coli [23]): 96.2%
- inhibition at 6.25 µg/mL (Escherichia coli [24]): 100%
- Activity (Staphylococcus aureus [25]): 81.8%
- Activity (Escherichia coli [26]): 93.41%
- Activity (Escherichia coli [27]): 72.32%
- viability at 24 h, 3.125 ug/mL [28]: 95.3%
- viability at 24 h, 6.25 ug/mL [29]: 88.9%
- viability at 24 h, 12.5 ug/mL [30]: 78%
- viability at 24 h, 50 ug/mL [31]: 8.36%
- log(activity) (Staphylococcus aureus [32]): 6.6
- log(activity) (Pseudomonas aeruginosa): 3.2

SMILES: CC(C)=CCN1CCCc2cc(OCCCCCCCCNC(=N)N)ccc21
- MIC (Staphylococcus aureus [1]): 0.78 µg/mL (≈ 2.02 µM)
- MIC (Staphylococcus aureus [2]): 0.78 µg/mL (≈ 2.02 µM)
- MIC (Acinetobacter baumannii [3]): 3.12 µg/mL (≈ 8.08 µM)
- MIC (Klebsiella pneumoniae [4]): 3.12 µg/mL (≈ 8.08 µM)
- MIC (Klebsiella pneumoniae [5]): 3.12 µg/mL (≈ 8.08 µM)
- MIC (Staphylococcus aureus [6]): 0.78 µg/mL
- MIC (Staphylococcus aureus [7]): 0.78 µg/mL
- MIC (Candida albicans [8]): 0.78 µg/mL
- MIC (Staphylococcus aureus [9]): 0.78 µg/mL
- MIC (Staphylococcus aureus [10]): 0.78 µg/mL
- MIC (Acinetobacter baumannii [11]): 3.12 µg/mL
- MIC (Staphylococcus aureus [12]): 0.78 µg/mL
- MIC (Escherichia coli [13]): 3.12 µg/mL
- MIC (Acinetobacter baumannii [14]): 3.12 µg/mL
- MIC (Candida albicans [15]): 1.56 µg/mL
- log(activity) (Staphylococcus aureus [16]): >3
- log(activity) (Escherichia coli [17]): >3
- Activity (Candida albicans [18]): Dose-Dependent Effect
- Activity (Candida albicans [19]): inactive
- Activity (Cell membrane): Active
- inhibition at 0.78 µg/mL (Staphylococcus aureus [20]): 93.6%
- inhibition at 3.125 µg/mL (Staphylococcus aureus [21]): 100%
- inhibition at 0.78 µg/mL (Escherichia coli [22]): 32.2%
- inhibition at 3.125 µg/mL (Escherichia coli [23]): 92.8%
- inhibition at 6.25 µg/mL (Escherichia coli [24]): 101%
- Activity (Staphylococcus aureus [25]): 80.76%
- Activity (Escherichia coli [26]): 96.08%
- Activity (Escherichia coli [27]): 85.82%
- viability at 24 h, 3.125 ug/mL [28]: 99.7%
- viability at 24 h, 6.25 ug/mL [29]: 93.6%
- viability at 24 h, 12.5 ug/mL [30]: 87.6%
- viability at 24 h, 50 ug/mL [31]: 36.3%
- log(activity) (Staphylococcus aureus [32]): 6.3
- log(activity) (Pseudomonas aeruginosa): 3.4

From ChEMBL document CHEMBL5352419, “Design, synthesis, and biological evaluation of tetrahydroquinoline amphiphiles as membrane-targeting antimicrobials against pathogenic bacteria and fungi” (Eur J Med Chem, 2022)
